Data taken from paper PMC11791359, “A select inhibitor of MORC2 encapsulated by chimeric membranecoated DNA nanocage target alleviation TNBC progression” (Materials Today Bio, 2025).
Residues, ends and D or L forms follow the SMILES beside them. *: point of attachment. Cbz = O=C(OCc1ccccc1)*; CH2F = FC*

Key:
TNBC cells = assay: Apoptosis by flow cytometry (Annexin V-FITC/PI); format: cell-based, human; details: TNBC cells, Angoline plus apoptosis inhibitor
Protocol: The treated cells were digested with pancreatic enzymes and then were collected and washed with PBS. The cells were immobilized with pre-cooled 70% ethanol at 4 ℃ for 12-24 hours, and then centrifuged, washed, and suspended to ensure uniform cell dispersion. Propyridine iodide staining solution was added to each cell sample and incubated without light at 37 ℃ for 30 minutes. Subsequently, the labeled cells were subjected to cell cycle analysis using flow cytometer (Beckman Coulter, USA), and the results were processed by FlowJo software. For the apoptosis assay, 1 × 10^5 cells per sample were collected into 1.5 mL centrifuge tubes and were re-suspended with 195 μL Annexin V-FITC binding solution. Then, 5 μL Annexin V-FITC and 10 μL PI dyeing solution were added into every sample to re-suspend the cells and incubated at 20-25 °C for 20 minutes. Flow cytometry was used to detect red fluorescence at 638 nm and green fluorescence at 488 nm, and the apoptosis results were analysed by FlowJo software.

neutrophils = assay: Phagocytosis by neutrophils (fluorescence microscopy); format: cell-based, human; details: incubated 4 hours
primary TNBC cells = assay: Uptake by primary TNBC cells (fluorescence microscopy); format: cell-based, human; details: incubated 6 hours
[1] = system: TNBC-bearing BALB/c nude mice; details: mouse, in vivo
[2] = system: TNBC-bearing BALB/c nude mice; assay: In vivo distribution and tumor uptake in TNBC-bearing mice; details: tail vein injection, fluorescent in vivo imaging

Molecule | effect on the proapoptotic effect of Angoline (TNBC cells) | uptake by neutrophils (neutrophils) | uptake by primary TNBC cells (primary TNBC cells) | uptake in tumor tissue sections [1] | distribution in tumor-bearing mice [2]
COC(=O)C[C@H](NC(=O)[C@H](C)NC(=O)[C@@H](NC(=O)OCc1ccccc1)C(C)C)C(=O)CF [Z-VAD-FMK, reference compound] (Cbz-Val-Ala-Asp(OMe)-CH2F) | significantly reduce the proapoptotic effect of Angoline |  |  |  | 
Rhodamine |  | neutrophils were entirely covered with red fluorescence | rarely taken up by TNBC cells | rarely taken up by tumor cells | rapidly diffused throughout the nude mice and was quickly cleared
